“Also recorded” adds a separate entry of the source.
Columns and labels:
[1] = test system: Immortalized baby mouse kidney (iBMK) cells, non-activated (D3); experiment: iBMK cell growth with 12a, non-activated (D3); assay type: cell-based
Description: (§1) FIG. 7: Bioactivity of farnesoic diacid. FIG. 7(a): E. coli NCM372 was grown to an optical density (OD600) of around 0.2, where either 12a in DMSO was added to final concentration of 10 μM (+) or DMSO was added (−). Three biological replicates are shown, and statistical significance using an unpaired t test is shown. FIG. 7(b): Immortalized baby mouse kidney (iBMK) cells were grown, either non-activated (D3) or Ras-activated (Ras). 12a in DMSO was added to final concentration of 10 μM (+) or DMSO was added (−). Three biological replicates are shown, and statistical significance using an unpaired t test is shown.
(§2) We supplemented cultures with 12a to a final concentration of 10 μM and monitored growth in both Escherichia coli (FIG. 6a) and mammalian cell lines (FIG. 6b). […] These findings provide evidence that farnesoic diacid and potentially our other newly discovered bifunctional terpenoids may have distinct bioactivities across diverse biological contexts, with applications in more efficient cultivation of microbes and selective activity against certain mammalian cells. As the longer bifunctional terpenoids (C25-C30) resemble oxylipin and polyunsaturated fatty acids, which are implicated in immunity and obesity, we reason that bioactivity may be related to lipid metabolism in mammalian systems that will be relevant in pharmaceutical contexts. […]

[2] = test system: Immortalized baby mouse kidney (iBMK) cells, Ras-activated (Ras); experiment: iBMK cell growth with 12a, Ras-activated (Ras); assay type: cell-based
Description: as §1, §2

E. coli NCM372 = experiment: E. coli growth with 12a supplementation; assay type: cell-based, Escherichia coli
Description: as §1
We supplemented cultures with 12a to a final concentration of 10 μM and monitored growth in both Escherichia coli (FIG. 6a) and mammalian cell lines (FIG. 6b). […] These findings provide evidence that farnesoic diacid and potentially our other newly discovered bifunctional terpenoids may have distinct bioactivities across diverse biological contexts, with applications in more efficient cultivation of microbes and selective activity against certain mammalian cells. As the longer bifunctional terpenoids (C25-C30) resemble oxylipin and polyunsaturated fatty acids, which are implicated in immunity and obesity, we reason that bioactivity may be related to lipid metabolism in mammalian systems that will be relevant in pharmaceutical contexts. Furthermore, the shorter bifunctional terpenoids (C15-C20) and their preceding biosynthetic intermediates resemble inhibitors of insect development, such as juvenile hormones, these molecules may serve as scaffolds for insecticide drug activity to target insect development. Further research on the novel molecules will illuminate more bioactivities on humans, human cells, research animals, plants, insects, and microorganisms.

[3] = 12a 10 μM vs DMSO, 3 biological replicates

Q: For `C/C(=C\CC/C(C)=C/C(=O)O)CC/C=C(\C)C(=O)O` [12a, farnesoic diacid], which “proliferation / cell growth” value ([1]; 12a 10 μM) is on record?
A: decreases mammalian (cancer-like) cell growth; also recorded: modest decrease in proliferation

Q: And the “cancer-like cell lines grew slower with treatment” value [1, 3]?
A: ~10%

Q: And the “proliferation / cell growth” value ([2]; 12a 10 μM)?
A: decreases mammalian (cancer-like) cell growth; also recorded: modest decrease in proliferation

Q: What about the “cancer-like cell lines grew slower with treatment” value [2, 3] of the same compound?
A: ~10%

Q: What about the “microbial cells grew faster with treatment” value (E. coli NCM372; 12a 10 μM in DMSO vs DMSO, added at OD600 around 0.2, 3 biological replicates) of the same compound?
A: ~10%

Q: What about the “final optical density” value (E. coli NCM372; 12a 10 μM vs DMSO) of the same compound?
A: higher final optical density

Q: And the “microbial growth rate / cell growth” value (E. coli NCM372; 12a 10 μM vs DMSO)?
A: increases microbial cell growth; also recorded: increased microbial growth rate

Q: What about the “total biomass content” value (E. coli NCM372; farnesoic diacid treatment, FIG. 7) of the same compound?
A: increased

— US20250354182A1, “BIOSYNTHESIS OF BIFUNCTIONAL TERPENOIDS” (The Regents of the University of California, priority 2024, published 2025)
